Counter-ions that a name gives are not always drawn.
Legend:
Type in all cases: physicochemical
[1] = Photodegradation monitored by UV / visible spectrophotometry; conditions: after two months under natural exposure; for λmax (nm): visible range
Procedure: The study of the photophysical properties of promethazine hydrochloride and the association Lac6P on the one hand, and mequitazine hydrochloride and the association Lac6M on the other, was thus undertaken by UV spectrophotometry.
This study was carried out on a Hewlett-Packard 8452A diode array spectrophotometer operating at wavelengths between 190 nm and 820 nm.
The solutions were analyzed in quartz cells at concentrations of 4×10 ^−2 M and 6.6×10^−5 M.
(§1) To carry out this study, the various solutions (4×10^−2 M) are placed in a 25° C. water bath under natural light for several weeks. This gentler mode of irradiation was preferred over the use of a Xenon lamp which degrades the active principle too rapidly and makes it impossible to establish a comparison.
However, in order to better understand this phenomenon, photodegradation of the hydrochlorides and the associations Lac6P and Lac6M was monitored by visible spectrophotometry. This analysis technique is particularly suited to the study of this phenomenon because it takes color variations into account.
After two months under natural exposure, the appearance of a band for promethazine and mequitazine hydrochlorides, as well as for the catanionic association Lac6P, confirms the color changes observed. It is important to note that in visible spectrophotometry, perceived color is always complementary to absorbed radiation. For example, mequitazine hydrochloride absorbs in the green spectrum (λ=512 nm) and appears pink-purple.

[2] = Photostability under natural light, visual observations; conditions: 4×10^−2 M solution, 25° C. water bath
Procedure: as §1

[3] = Photodegradation quantified by HPLC (undegraded active principle in solution); conditions: after five days under natural light, 4×10^−2 M
Procedure: Promethazine photodegradation was monitored by HPLC on a Waters 2695 chromatograph equipped with Millipore 510 pumps and an XBridge RP18 column (2.1×100 nm, 3.5 μm). Promethazine is detected by UV-visible spectrophotometry, at a wavelength of 251 nm, with a Waters 2487 Dual λ Absorbance Detector. The mobile phase is composed of a 22/78 mixture of 0.1% formic acid in water and acetonitrile. Elution is carried out in isocratic mode with a flow rate of 0.35 ml/min^−1. The volumes injected are 10 μl. All the samples were injected three times.
A calibration curve is prepared beforehand with promethazine hydrochloride over a range of concentrations between 10^5 M and 5×10^−2 M.
In order to refine the results obtained, degradation of promethazine hydrochloride and the catanionic association Lac6P was quantified by high-performance liquid chromatography (HPLC). Degradation is monitored by assaying the quantity of undegraded active principle present in solution (FIG. 2).

| SMILES | Color observed [1] | λmax (nm) [1] [nm] | colour change of the solution (visual observation) [2] | appearance of an insoluble product (visual observation) [2] | degradation rate [3] [%] |
| --- | --- | --- | --- | --- | --- |
| c1ccc2c(c1)Sc1ccccc1N2CC1CN2CCC1CC2 (centres unmarked) [Mequitazine hydrochloride, mequitazine hydrochloride] | pink-purple | 512 | turns pink after ten days of exposure, and then changes no further |  |  |
| CC(CN1c2ccccc2Sc2ccccc21)N(C)C (centres unmarked) [Promethazine hydrochloride, promethazine hydrochloride] | violet-indigo | 538 | turns pink after 24 hours of exposure and changes to blue-violet after a few days | an insoluble compound appears after about two weeks under natural light | 13 |

From patent US8895518B2, “Cooperative conveyance of basic active principles by amphiphilic acid molecules” (Centre National de la Recherche Scientifique, priority 2009, dated 2014)
